Assay results published in PubChem BioAssay (NCI).
Where “and” joins values, the source holds several entries; their conditions need not be identical. Equal entries are not always repeated.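 Assay format: 96-well plates, 48-hour exposure. GI50 is the concentration that inhibits growth by half. TGI is the concentration that stops growth completely.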

Legend:
Assay in all cases: NCI-60 cell line screen, 48 h
[1] = tested on: SF-268 CNS
[2] = tested on: OVCAR-3 ovarian
[3] = tested on: SW-620 colon
[4] = tested on: HT29 colon
[5] = tested on: SK-MEL-28 melanoma
[6] = tested on: UACC-257 melanoma
[7] = tested on: HCC-2998 colon
[8] = tested on: BT-549 breast
[9] = tested on: NCI-H522 lung
[10] = tested on: T-47D breast

SMILES	TGI [1]	TGI [2]	TGI [3]	TGI [4]	TGI [5]	TGI [6]	TGI [7]	GI50 [1]	GI50 [2]	GI50 [3]	GI50 [8]	TGI [8]	GI50 [4]	GI50 [5]	GI50 [9]	TGI [9]	GI50 [10]	TGI [10]	GI50 [6]	GI50 [7]
N#CC1=C(c2ccccc2)OC2(N)OC(c3ccccc3)=C(C#N)C12C#N (centres undefined)	> 100 µM	> 100 µM	> 100 µM	> 100 µM	> 100 µM	> 100 µM	> 100 µM													
COC(=O)[C@H](CCCCNC(=O)OCc1ccccc1)NC(=O)[C@@H](NC(=O)Nc1cc(C(F)(F)F)cc(C(F)(F)F)c1)C(C)C	> 10 µM	> 10 µM	> 10 µM	> 10 µM	> 10 µM	> 10 µM	> 10 µM	> 10 µM	> 10 µM	> 10 µM	> 10 µM	> 10 µM	> 10 µM	> 10 µM	> 10 µM	> 10 µM	> 10 µM	> 10 µM	> 10 µM	> 10 µM
COc1cccc(-c2nn(-c3ccccc3)cc2-c2ccnc(NCCCNS(=O)(=O)c3ccc(C(F)(F)F)cc3)c2)c1	> 100 µM	> 100 µM	> 100 µM		> 100 µM	55.9 µM	> 100 µM	6.88 µM	5.75 µM	11.2 µM	4.41 µM	> 100 µM	3.21 µM	9.1 µM	2.51 µM	23 µM	2.54 µM	9.11 µM	6.3 µM	5.22 µM
O=C(c1ccc(Nc2nccc(NCCCCNc3ccnc4cc(Cl)ccc34)n2)cc1)N1CCCCC1	8.31 µM	4.63 µM	2.17 µM	6.57 µM	4.67 µM	3.34 µM	5.42 µM	2.36 µM	1.92 µM	0.589 µM	1.75 µM	3.42 µM	1.31 µM	2.04 µM	2.22 µM	4.89 µM	2.08 µM	5.6 µM	1.75 µM	1.91 µM
NC(Cc1c[nH]c2cccc(F)c12)C(=O)O (centres undefined)	> 4500 µM	967 µM	1020 µM	2620 µM	> 4500 µM	> 4500 µM	2400 µM	801 µM	39.6 µM and 237 µM	47.7 µM and 279 µM	151 µM	873 µM	36.5 µM and 300 µM	74.7 µM and 360 µM	27.7 µM and 176 µM	74.5 µM and 729 µM		> 4500 µM	1380 µM	73.2 µM and 694 µM
O=C(OCc1ccccc1)n1cccc1	> 100 µM	> 100 µM	> 100 µM	> 100 µM	> 100 µM	> 100 µM	> 100 µM									> 100 µM				
CCC(C(=O)[C@@H](C)[C@@H](O)[C@H](C)[C@@H]1O[C@@H]([C@@H](CC)C(=O)ONC(=O)c2ccccc2)CC[C@@H]1C)[C@H]1O[C@]2(C=CC(=O)[C@]3(CC[C@@](C)([C@H]4CC[C@](O)(CC)[C@H](C)O4)O3)O2)[C@H](C)C[C@@H]1C (some centres undefined)	3.11 µM	1.29 µM	2.71 µM	2.1 µM	8.57 µM	5.61 µM	4.03 µM	0.977 µM	0.0849 µM	0.582 µM	0.146 µM	1.97 µM	0.387 µM	1.6 µM	0.0547 µM	1.4 µM	0.0463 µM	2.98 µM	0.255 µM	0.658 µM
Cc1nn(-c2ccccc2)c2nc(C)n(-c3ccc(Br)cc3)c(=O)c12	> 100 µM	> 36.7 µM	> 100 µM	> 31.6 µM	> 100 µM	> 100 µM	> 100 µM	2.33 µM	0.405 µM	0.353 µM	0.688 µM	67.3 µM	0.355 µM	3.46 µM	0.326 µM	18.6 µM	0.427 µM	> 70.5 µM	0.768 µM	1.61 µM
Cc1ccc(C2C3Cc4ccccc4C3=NN2c2ccc(S(=O)(=O)NC(=O)Nc3ccccc3)cc2)cc1 (centres undefined)	55 µM	36.5 µM	26 µM	> 100 µM	52.5 µM	37.8 µM		17.5 µM	14.7 µM	13.1 µM	14.7 µM	34.5 µM	24.3 µM	22.6 µM	10.6 µM	28.7 µM	36.8 µM	> 100 µM	18.6 µM	
CC(=N/NC(N)=S)/C(C)=N/NC(N)=S	> 100 µM	> 100 µM	> 100 µM	> 100 µM	> 100 µM	> 100 µM	> 100 µM					> 100 µM				> 100 µM				
c1ccc2c(c1)[nH]c1c3ccccc3sc21	> 100 µM	> 100 µM	> 100 µM	> 100 µM	> 100 µM	> 100 µM	> 100 µM									> 100 µM		> 100 µM		
O=C(Nc1ccc(Cl)cc1)N1CCN(c2ccc3nncn3n2)CC1	> 100 µM	> 100 µM	> 100 µM	> 100 µM	> 100 µM		> 100 µM	> 100 µM	62.4 µM	60.8 µM	57.4 µM	> 100 µM	60.7 µM	> 100 µM			29.4 µM	> 100 µM		81.8 µM
CCOC(=O)CCn1cnc(N)n1		> 100 µM	> 100 µM	> 100 µM	> 100 µM	> 100 µM	> 100 µM									> 100 µM				
Cc1cn(C2CC(O)C(COC(N)=O)O2)c(=O)[nH]c1=O (centres undefined)	> 100 µM	> 100 µM	> 100 µM	> 100 µM	> 100 µM	> 100 µM						> 100 µM				> 100 µM		> 100 µM		
Cc1ccc2c(c1)C(O)(c1ccccc1)CCS2 (centres undefined)	> 100 µM	46.9 µM	> 100 µM	66 µM	> 100 µM	> 100 µM						93.6 µM				44.6 µM		> 100 µM		
COc1cc(/C=C/c2ccnc3ccccc23)cc(OC)c1OC	19.8 µM and 47.6 µM	14.6 µM and 4.71 µM	> 100 µM and 20 µM		37.2 µM and > 100 µM	91.6 µM and > 100 µM	> 100 µM and 38.4 µM		1.67 µM	0.906 µM			1.72 µM	4.06 µM		46.8 µM and 7.39 µM	6.58 µM	80.4 µM and > 100 µM		3.53 µM
